This is an account of results in patent publication US7973051B2 (Hoffman-La Roche Inc., priority 2007, dated 2011).

As usually defined, the IC50 is the concentration that inhibits the measured activity by half.

The target in the experiment is T1, human liver FBPase (Homo sapiens, UniProt P09467).
T1 construct: made in house; host or cells: E. coli
T1 sequence (P09467 2-338 limits assumed): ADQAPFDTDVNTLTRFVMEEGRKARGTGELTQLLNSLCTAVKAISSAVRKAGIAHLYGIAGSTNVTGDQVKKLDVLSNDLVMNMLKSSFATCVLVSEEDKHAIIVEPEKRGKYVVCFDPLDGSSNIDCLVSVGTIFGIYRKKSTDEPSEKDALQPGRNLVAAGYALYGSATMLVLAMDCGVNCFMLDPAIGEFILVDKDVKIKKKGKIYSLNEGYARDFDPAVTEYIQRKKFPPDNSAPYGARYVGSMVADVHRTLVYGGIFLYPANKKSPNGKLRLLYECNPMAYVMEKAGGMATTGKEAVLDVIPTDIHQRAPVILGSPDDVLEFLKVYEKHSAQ
Description: FBPase assay: inorganic phosphate release (malachite green). The class given is biochemical. As to conditions: recombinant human liver FBPase, 50 μM fructose-1,6-bisphosphate, read-out at 620 nm. On the procedure:
The following tests were carried out for evaluating the inhibitory activity of the compounds of the present invention against human liver FBPase (Swissprot Data base reference P09467, entry F16P_HUMAN).
Human liver FBPase cDNA (NM_000507) was purchased from Origene Technologies, Inc, subcloned in a vector for expression in E. Coli., and sequenced. Recombinant human liver FBPase (hlFBPase) was purified according to the following protocol that uses heat denaturation similarly to that described by El-Maghrabi et. al. [El-Maghrabi, M. R. et al. “Isolation of a human liver fructose-1,6-bisphosphatase cDNA and expression of the protein in Escherichia coli.” J Biol Chem 268:9466-9472, 1993.]. Briefly, E. coli cells, transiently expressing very high levels of soluble and active human liver FBPase, were suspended in 20 mM Tris-HCl pH 7.5, 1 mM EDTA, 1 mM DTT and were lysed by French press. The soluble extract was heat denatured at 65° C. for 5 min, and insoluble, denatured proteins were removed by centrifugation. The extract was then applied to a BioRad Macro-Prep High Q column equilibrated with 20 mM Tris-HCl pH 7.5, 1 mM EDTA, 1 mM DTT and the flow-through (containing FBPase activity) was collected and applied to a BioRad Macro-Prep HS column equilibrated with 20 mM HEPES pH 7.2, 1 mM DTT. A gradient of increasing NaCl concentration was then applied to the HS column and fractions were collected. Fractions containing active FBPase were pooled and further purified by size exclusion chromatography on a Sephacryl S200 column equilibrated in 20 mM Tris-HCl pH 7.5, 150 mM NaCl, 1 mM EDTA, 1 mM DTT. Purity of the enzyme preparation was >90% as assessed by Mass spectrometry.
Recombinant human liver FBPase (hlFBPase) activity was assayed through measuring the inorganic phosphate release that results from the hydrolysis of Fructose-1,6-bisphosphate by the enzyme. As described by Baykov A. A. et al. in [Baykov A. A et al., “Malachite Green procedure for orthophosphate determination and its use in alkaline phosphatase-based enzyme immunoassays”. Anal. Biochem., 171:266-270, 1988], inorganic phosphate can be readily quantified by spectrophotometry at 620 nm after complexation with ammonium molybdate/malachite green reagent. Enzymatic reaction was carried out with modifications of the procedure described by Wright S. W. et al. [Wright S. W. et al., “Anilinoquinazoline inhibitors of Fructose-1,6-bisphosphatase bind to a novel allosteric site: synthesis, in vitro characterization, and X-ray crystallography”. J. Med. Chem. 45:3865-3877, 2002]. Specifically, the reaction was carried out in 96 well plates in a final volume of 100 μl in the presence or in the absence of allosteric inhibitors. Reaction was started adding 25 ng of hlFBPase to the reaction mixture containing 50 mM HEPES-KOH buffer pH 7.2, 2 mM MgCl2, 2 mM EDTA, 1 mM DTT, 50 μM fructose-1,6-bisphosphate and 1% DMSO. After 50 minutes incubation at room temperature, the phosphate released was allowed to form a colored complex for 10 min by adding 150 μl of ammonium molybdate/malachite green reagent containing 0.03% malachite green, 0.2% ammonium molybdate, 0.05% Triton X-100 and 0.7 M H2SO4 in water that was stirred for 30 min at room temperature and filtered through 0.2 μm filter. Under these conditions, the assay was linear with time and able to detect FBPase inhibition after spectrophotometric read-out at 620 nm.
For the compound `CC(=O)OCCc1sc(S(=O)(=O)NC(=O)Nc2nc(-c3ccccc3)c(C)s2)cc1C` [Example 73, 2-[3-Methyl-5-({[(5-methyl-4-phenyl-1,3-thiazol-2-yl)carbamoyl]amino}sulfonyl)-2-thienyl]ethyl acetate], the IC50 is 128 nM.
With `COc1cccc2sc(NC(=O)NS(=O)(=O)c3cc(C)c(CCO)s3)nc12` [Example 93, 5-(2-Hydroxyethyl)-N-[(4-methoxy-1,3-benzothiazol-2-yl)carbamoyl]-4-methylthiophene-2-sulfonamide] the figure was 141 nM; with `COc1ccc(Cl)c2sc(NC(=O)NS(=O)(=O)c3cc(C)c(CCO)s3)nc12` [Example 92, N-[(7-Chloro-4-methoxy-1,3-benzothiazol-2-yl)carbamoyl]-5-(2-hydroxyethyl)-4-methylthiophene-2-sulfonamide], 38 nM; with `COCCOc1cccc2c(S(=O)(=O)NC(=O)Nc3ncc(Br)s3)cn(C)c12` [Example 42, N-[(5-bromo-1,3-thiazol-2-yl)carbamoyl]-7-(2-methoxyethoxy)-1-methyl-1H-indole-3-sulfonamide], 375 nM.
As for `COc1cccc2c(S(=O)(=O)NC(=O)Nc3ncc(Br)s3)cn(C)c12` [Example 33, N-[(5-Bromo-1,3-thiazol-2-yl)carbamoyl]-7-methoxy-1-methyl-1H-indole-3-sulfonamide], the half-maximal inhibitory concentration (IC50) is 71 nM.
With `CSc1sc(NC(=O)NS(=O)(=O)c2cc(C)c(CCOC(C)=O)s2)nc1C` [Example 85, 2-{3-Methyl-5-[({[4-methyl-5-(methylthio)-1,3-thiazol-2-yl]carbamoyl}amino)sulfonyl]-2-thienyl}ethyl acetate] the figure was 160 nM; with `CC(=O)OCCOc1cccc2c(S(=O)(=O)NC(=O)Nc3ncc(Br)s3)cn(C)c12` [Example 48, 2-{[3-({[(5-Bromo-1,3-thiazol-2-yl)carbamoyl]amino}sulfonyl)-1-methyl-1H-indol-7-yl]oxy}ethyl acetate], 429 nM.
The result for `COCCc1sc(S(=O)(=O)NC(=O)Nc2nc(-c3ccccc3)c(C)s2)cc1C` [Example 66, 5-(2-Methoxyethyl)-4-methyl-N-[(5-methyl-4-phenyl-1,3-thiazol-2-)carbamoyl]thiophene-2-sulfonamide] reads 160 nM; that for `CCc1sc(NC(=O)NS(=O)(=O)c2cc(C)c(CCOC)s2)nc1C(C)C` [Example 77, N-[(5-Ethyl-4-isopropyl-1,3-thiazol-2-yl)carbamoyl]-5-(2-methoxyethyl)-4-methylthiophene-2-sulfonamide], 366 nM; that for `COc1ccc2sc(S(=O)(=O)NC(=O)Nc3ncc(Br)s3)cc2c1` [Example 17, N-[(5-Bromo-1,3-thiazol-2-yl)carbamoyl]-5-methoxy-1-benzothiophene-2-sulfonamide], 167 nM.
For the compound `Cc1c(S(=O)(=O)NC(=O)Nc2ncc(Br)s2)sc2ccc(F)cc12` [Example 3, N-[(5-Bromo-1,3-thiazol-2-yl)carbamoyl]-5-fluoro-3-methyl-1-benzothiophene-2-sulfonamide], the IC50 is 2730 nM.
`Cn1cc(S(=O)(=O)NC(=O)Nc2ncc(Br)s2)c2cccc(OCC(N)=O)c21` [Example 51, 2-{[3-({[(5-Bromo-1,3-thiazol-2-yl)carbamoyl]amino}sulfonyl)-1-methyl-1H-indol-7-yl]oxy}acetamide]: the IC50 stood at 137 nM.
As to `COc1ccc2cc(S(=O)(=O)NC(=O)Nc3ncc(Br)s3)sc2c1` [Example 9, N-[(5-Bromo-1,3-thiazol-2-yl)carbamoyl]-6-methoxy-1-benzothiophene-2-sulfonamide], the IC50 is 88 nM.
`Cc1noc(C)c1-c1cccc2cc(S(=O)(=O)NC(=O)Nc3ncc(Br)s3)sc12` [Example 21, N-[(5-Bromo-1,3-thiazol-2-yl)carbamoyl]-7-(3,5-dimethylisoxazol-4-yl)-1-benzothiophene-2-sulfonamide]: the IC50 was 447 nM.
For the compound `O=C(Nc1ncc(Br)s1)NS(=O)(=O)c1cc2cc(Cl)ccc2s1` [Example 13, N-[(5-Bromo-1,3-thiazol-2-yl)carbamoyl]-5-chloro-1-benzothiophene-2-sulfonamide], the IC50 stood at 111 nM.
The result for `COCCc1sc(S(=O)(=O)NC(=O)Nc2nc3cc(OC)ccc3s2)cc1C` [Example 45, N-[(5-Methoxy-1,3-benzothiazol-2-yl)carbamoyl]-5-(2-methoxyethyl)-4-methylthiophene-2-sulfonamide] reads 402 nM; that for `Cc1cc(S(=O)(=O)NC(=O)Nc2nc(-c3ccccc3)c(C)s2)cs1` [Example 65, 5-Methyl-N-[(5-methyl-4-phenyl-1,3-thiazol-2-yl)carbamoyl]thiophene-3-sulfonamide], 300 nM; that for `Cn1cc(S(=O)(=O)NC(=O)Nc2ncc(Br)s2)c2cccc(OCc3ccccc3)c21` [Example 41, 7-(Benzyloxy)-N-[(5-bromo-1,3-thiazol-2-yl)carbamoyl]-1-methyl-1H-indole-3-sulfonamide], 124 nM.
For `COCCc1sc(S(=O)(=O)NC(=O)Nc2nc3c(OC)cccc3s2)cc1C` [Example 89, N-[(4-Methoxy-1,3-benzothiazol-2-yl)carbamoyl]-5-(2-methoxyethyl)-4-methylthiophene-2-sulfonamide], the IC50 is 263 nM.
`Cc1cc(S(=O)(=O)NC(=O)Nc2nc(-c3ccccc3)c(C)s2)sc1CCO` [Example 76, 5-(2-Hydroxyethyl)-4-methyl-N-[(5-methyl-4-phenyl-1,3-thiazol-2-yl)carbamoyl]thiophene-2-sulfonamide]: the half-inhibitory concentration (IC50) worked out at 280 nM.
The result for `COc1ccc2scc(S(=O)(=O)NC(=O)Nc3ncc(Br)s3)c2c1` [Example 7, N-[(5-Bromo-1,3-thiazol-2-yl)carbamoyl]-5-methoxy-1-benzothiophene-3-sulfonamide] reads 122 nM.
The result for `COc1sc(NC(=O)NS(=O)(=O)c2cc(C)c(CCOC(C)=O)s2)nc1C` [Example 74, 2-[5-({[(5-Methoxy-4-methyl-1,3-thiazol-2-yl)carbamoyl]amino}sulfonyl)-3-methyl-2-thienyl]ethyl acetate] reads 454 nM; that for `Cn1cc(S(=O)(=O)NC(=O)Nc2ncc(Br)s2)c2ccc(OCc3ccccc3)cc21` [Example 28, 6-(Benzyloxy)-N-[(5-bromo-1,3-thiazol-2-yl)carbamoyl]-1-methyl-1H-indole-3-sulfonamide], 363 nM.
For the compound `CCc1sc(NC(=O)NS(=O)(=O)c2csc(C)c2)nc1-c1ccccc1` [Example 71, N-[(5-Ethyl-4-phenyl-1,3-thiazol-2-yl)carbamoyl]-5-methylthiophene-3-sulfonamide], the IC50 is 159 nM.
With `CCc1sc(NC(=O)NS(=O)(=O)c2cc(C)c(CCOC(C)=O)s2)nc1-c1ccccc1` [Example 80, 2-[5-({[(5-Ethyl-4-phenyl-1,3-thiazol-2-yl)carbamoyl]amino}sulfonyl)-3-methyl-2-thienyl]ethyl acetate] the figure was 161 nM.
With `COc1sc(NC(=O)NS(=O)(=O)c2cn(C)c3c(OC)cccc23)nc1C` [Example 52, 7-Methoxy-N-[(5-methoxy-4-methyl-1,3-thiazol-2-yl)carbamoyl]-1-methyl-1H-indole-3-sulfonamide], the IC50 stood at 771 nM.
In the case of `O=C(Nc1ncc(Br)s1)NS(=O)(=O)c1csc2ccc(Cl)cc12` [Example 12, N-[(5-Bromo-1,3-thiazol-2-yl)carbamoyl]-5-chloro-1-benzothiophene-3-sulfonamide], the IC50 was 370 nM.
